Key:
nanoLuc TRAP1 = target: T1, nanoLuc TRAP1 (Homo sapiens, UniProt Q12931); assay: In-cell target engagement assay (NanoBRET) in SHSY5Y cells; assay type: cell-based; conditions: tracer probe-385, 1 μM; live SHSY5Y cells; FIG. 4
T1 construct: expressed in transfected cells; host or cells: SHSY5Y cells, transient transfection with FuGENE HD
T1 sequence (Q12931 60-704): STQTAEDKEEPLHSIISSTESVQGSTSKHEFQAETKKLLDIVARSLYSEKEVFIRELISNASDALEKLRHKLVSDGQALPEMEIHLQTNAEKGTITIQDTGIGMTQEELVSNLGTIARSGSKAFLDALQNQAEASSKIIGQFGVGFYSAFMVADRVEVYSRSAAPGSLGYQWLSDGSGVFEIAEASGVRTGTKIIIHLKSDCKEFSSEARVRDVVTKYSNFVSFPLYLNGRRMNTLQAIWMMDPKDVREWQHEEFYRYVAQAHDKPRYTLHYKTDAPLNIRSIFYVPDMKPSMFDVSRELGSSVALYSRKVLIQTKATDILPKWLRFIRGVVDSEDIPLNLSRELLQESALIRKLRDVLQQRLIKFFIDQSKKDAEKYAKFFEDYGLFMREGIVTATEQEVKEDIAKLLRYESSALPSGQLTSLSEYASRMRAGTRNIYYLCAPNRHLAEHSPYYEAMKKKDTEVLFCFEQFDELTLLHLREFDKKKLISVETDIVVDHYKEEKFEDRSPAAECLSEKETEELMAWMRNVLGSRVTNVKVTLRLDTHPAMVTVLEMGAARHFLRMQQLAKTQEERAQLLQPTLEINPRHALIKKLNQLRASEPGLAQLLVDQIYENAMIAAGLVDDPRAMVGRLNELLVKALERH
Procedure: In-cell target engagement assays were performed as described in Robers M. B. et al. (2019) Quantitative, Real-Time Measurements of Intracellular Target Engagement Using Energy Transfer. In: Ziegler S., Waldmann H. (eds) Systems Chemical Biology. Methods in Molecular Biology, vol 1888. Humana Press, New York, N.Y.; Machleidt et al., ACS Chem. Biol. 2015, 10, 8, 1797-1804; or Vasta et al., Cell Chemical Biology 25, 206-214, Feb. 15, 2018; or as described herein.
Below is a protocol for transient transfection of SHSY5Y cells with NanoLuc® fusions. • 1. Cultivate SHSY5Y cells appropriately prior to assay in MEM w NEAA supplemented with 10% FBS. • 2. Remove medium from cell flask via aspiration, trypsinize, and allow cells to dissociate from the flask. • 3. Neutralize trypsin using growth medium and pellet cells via centrifugation at 200 g for 5 minutes. • 4. Aspirate medium and re-suspend cells into a single cell suspension using complete cell culture medium. • 5. Adjust the cell density to 300K/mL in cell culture medium in a sterile, conical tube. • 6. Prepare lipid:DNA complexes as follows (this covers two assay plates, adjust numbers for more plates) • a. Prepare a 10 μg/mL solution of DNA in Opti-MEM without serum. This solution should contain the following ratios of carrier DNA and DNA encoding NanoLuc® fusion. • i. 5.0 μg/mL of Transfection Carrier DNA (pGEM) • ii. […]

mIMCD3 Pkd1−/− cells = assay: Mouse cell derived cyst assay; assay type: cell-based; conditions: PKD KO mouse cell derived cyst forming assay; FIG. 13
Procedure: Mouse cell derived cyst assays were performed as described in Booij, Tijmen H et al., SLAS discovery: advancing life sciences R & D vol. 22.8 (2017): 974-984, or as described below.
Murine inner medullary collecting duct cell line (mIMCD3 Pkd1^−/− cells) • mIMCD3 Pkd1 KO cells were seeded in 384 wells plates in extracellular matrix. • 4 days after seeding, cultures were co-exposed to treatments and stimuli (2.5 μM forskolin); • After 72 h, cultures were fixed, stained for nuclei and actin cytoskeleton and imaged with 4× magnification; and • Image analysis of the 3D stack was done using Ominer™ image analysis software.

- displacement of the nanoBRET tracer molecule from nanoLuc TRAP1 (nanoLuc TRAP1): displacing the nanoBRET tracer molecule
SMILES: Cc1nn(C)c2sc(C(=O)Nc3ccc(F)c(S(=O)(=O)Nc4ccc(Cl)cc4)c3)cc12 [Compound 705]
- cyst formation (mIMCD3 Pkd1−/− cells): preventing cyst formation
